Measured values taken from patent publication US8329706B2, “Oxazolidinone derivatives” (Actelion Pharmaceuticals Ltd., priority 2009, dated 2012).

Assays:
human orexin-2 receptor = target: T1, human orexin-2 receptor (Homo sapiens, UniProt O43614); assay: FLIPR intracellular calcium assay, orexin receptor antagonistic activity (OX2); format: cell-based; settings: CHO cells expressing human orexin-2 receptor; agonist 3 nM orexin-A; normalized to on-plate reference; * geomean n = 5, *2 geomean n = 2
T1 construct: expressed in transfected cells; host or cells: CHO cells (G418 selection)
T1 sequence (O43614 1-444): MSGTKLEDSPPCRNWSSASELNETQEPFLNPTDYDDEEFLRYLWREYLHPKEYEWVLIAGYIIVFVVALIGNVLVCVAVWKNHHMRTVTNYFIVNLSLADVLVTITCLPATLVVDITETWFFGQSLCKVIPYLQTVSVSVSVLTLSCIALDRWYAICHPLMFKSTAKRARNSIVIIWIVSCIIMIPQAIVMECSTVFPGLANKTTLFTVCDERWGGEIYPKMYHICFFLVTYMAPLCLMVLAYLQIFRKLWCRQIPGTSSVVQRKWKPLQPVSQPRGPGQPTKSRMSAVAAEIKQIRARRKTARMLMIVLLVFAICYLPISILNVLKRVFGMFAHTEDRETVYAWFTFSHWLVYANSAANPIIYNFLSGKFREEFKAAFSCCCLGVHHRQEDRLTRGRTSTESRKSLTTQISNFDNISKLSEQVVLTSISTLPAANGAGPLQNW
Experimental: (§1) The orexin receptor antagonistic activity of the compounds of formula (I) is determined in accordance with the following experimental method.
(§2) Chinese hamster ovary (CHO) cells expressing the human orexin-1 receptor and the human orexin-2 receptor, respectively, are grown in culture medium (Ham F-12 with L-Glutamine) containing 300 μg/ml G418, 100 U/ml penicillin, 100 μg/ml streptomycin and 10% heat inactivated fetal calf serum (FCS). The cells are seeded at 20′000 cells/well into 384-well black clear bottom sterile plates (Greiner). The seeded plates are incubated overnight at 37° C. in 5% CO2.
(§3) Human orexin-A as an agonist is prepared as 1 mM stock solution in MeOH:water (1:1), diluted in HBSS containing 0.1% bovine serum albumin (BSA), NaHCO3: 0.375 g/l and 20 mM HEPES for use in the assay at a final concentration of 3 nM.
(§4) Antagonists are prepared as 10 mM stock solution in DMSO, then diluted in 384-well plates using DMSO followed by a transfer of the dilutions into in HBSS containing 0.1% bovine serum albumin (BSA), NaHCO3: 0.375 g/l and 20 mM HEPES. On the day of the assay, 50 μl of staining buffer (HBSS containing 1% FCS, 20 mM HEPES, NaHCO3: 0.375 g/l, 5 mM probenecid (Sigma) and 3 μM of the fluorescent calcium indicator fluo-4 AM (1 mM stock solution in DMSO, containing 10% pluronic) is added to each well. The 384-well cell-plates are incubated for 50 min at 37° C. in 5% CO2 followed by equilibration at rt for 30-120 min before measurement.
(§5) Within the Fluorescent Imaging Plate Reader (FLIPR Tetra, Molecular Devices), antagonists are added to the plate in a volume of 10 μl/well, incubated for 10 min and finally 10 μl/well of agonist is added. Fluorescence is measured for each well at 1 second intervals, and the height of each fluorescence peak is compared to the height of the fluorescence peak induced by 3 nM orexin-A with vehicle in place of antagonist. For each antagonist, the IC50 value (the concentration of compound needed to inhibit 50% of the agonistic response) is determined and normalized using the obtained IC50 value of a on-plate reference compound. Optimized conditions were achieved by adjustment of pipetting speed and cell splitting regime. The calculated IC50 values of the compounds may fluctuate depending on the daily cellular assay performance. Fluctuations of this kind are known to those skilled in the art.

human orexin-1 receptor = target: T2, human orexin-1 receptor (Homo sapiens, UniProt O43613); assay: FLIPR intracellular calcium assay, orexin receptor antagonistic activity (OX1); format: cell-based; settings: CHO cells expressing human orexin-1 receptor; agonist 3 nM orexin-A; normalized to on-plate reference; * geomean n = 5, *2 geomean n = 2
T2 construct: expressed in transfected cells; host or cells: CHO cells (G418 selection)
T2 sequence (O43613 1-425): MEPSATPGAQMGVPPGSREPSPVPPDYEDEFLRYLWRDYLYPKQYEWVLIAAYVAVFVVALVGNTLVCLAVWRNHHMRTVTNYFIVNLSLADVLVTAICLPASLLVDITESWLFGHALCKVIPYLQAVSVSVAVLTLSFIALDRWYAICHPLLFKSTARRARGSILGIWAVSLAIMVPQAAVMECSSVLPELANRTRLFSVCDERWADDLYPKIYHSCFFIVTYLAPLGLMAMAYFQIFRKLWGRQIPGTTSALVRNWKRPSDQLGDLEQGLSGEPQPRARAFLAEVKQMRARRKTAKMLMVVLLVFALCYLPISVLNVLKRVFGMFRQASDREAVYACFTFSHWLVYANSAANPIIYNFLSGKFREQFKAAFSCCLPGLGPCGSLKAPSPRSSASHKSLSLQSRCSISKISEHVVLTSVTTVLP
Experimental: as §1, §2, §3, §4, §5

With `CCOc1ccccc1C1OCC(=O)N1Cc1ccc(Cl)cc1Cl` (centres unmarked) [Example 30, 3-(2,4-Dichloro-benzyl)-2-(2-ethoxy-phenyl)-oxazolidin-4-one] the IC50 (human orexin-2 receptor) was 844 nM and the IC50 (human orexin-1 receptor) was 3050 nM.
For `CCOc1ccccc1C1OCC(=O)N1Cc1ccc(C)c(Cl)c1` (centres unmarked) [Example 31, 3-(3-Chloro-4-methyl-benzyl)-2-(2-ethoxy-phenyl)-oxazolidin-4-one], the IC50 (human orexin-2 receptor) was 634 nM and the IC50 (human orexin-1 receptor) was 7600 nM.
Work on `COc1cccc(OC)c1C1OCC(=O)N1Cc1ccc(C(F)(F)F)cc1` (centres unmarked) [Example 32, 2-(2,6-Dimethoxy-phenyl)-3-(4-trifluoromethyl-benzyl)-oxazolidin-4-one] yielded an IC50 (human orexin-2 receptor) of 413 nM and an IC50 (human orexin-1 receptor) of over 10000 nM.
Work on `COc1cccc(OC)c1C1OCC(=O)N1Cc1ccccc1OC(F)(F)F` (centres unmarked) [Example 33, 2-(2,6-Dimethoxy-phenyl)-3-(2-trifluoromethoxy-benzyl)-oxazolidin-4-one] yielded an IC50 (human orexin-2 receptor) of 225 nM and an IC50 (human orexin-1 receptor) of over 10000 nM.
For `COc1cccc(OC)c1C1OCC(=O)N1Cc1ccc(OC(F)(F)F)cc1` (centres unmarked) [Example 34, 2-(2,6-Dimethoxy-phenyl)-3-(4-trifluoromethoxy-benzyl)-oxazolidin-4-one], the IC50 (human orexin-2 receptor) was 298 nM and the IC50 (human orexin-1 receptor) was 6470 nM.
For `COc1cccc(OC)c1C1OCC(=O)N1Cc1cccc(OC(F)(F)F)c1` (centres unmarked) [Example 35, 2-(2,6-Dimethoxy-phenyl)-3-(3-trifluoromethoxy-benzyl)-oxazolidin-4-one], the IC50 (human orexin-2 receptor) was 618 nM and the IC50 (human orexin-1 receptor) was 2890 nM.
For `COc1cccc(OC)c1C1OCC(=O)N1Cc1ccc(F)c(Cl)c1` (centres unmarked) [Example 36, 3-(3-Chloro-4-fluoro-benzyl)-2-(2,6-dimethoxy-phenyl)-oxazolidin-4-one], the IC50 (human orexin-2 receptor) was 632 nM and the IC50 (human orexin-1 receptor) was 1340 nM.
`COc1cccc(OC)c1C1OCC(=O)N1Cc1cc(C(F)(F)F)cc(Cl)c1F` (centres unmarked) [Example 37, 3-(3-Chloro-2-fluoro-5-trifluoromethyl-benzyl)-2-(2,6-dimethoxy-phenyl)-oxazolidin-4-one] showed an IC50 (human orexin-2 receptor) of 477 nM and an IC50 (human orexin-1 receptor) of 162 nM.
`COc1cccc(OC)c1C1OCC(=O)N1Cc1ccc(F)c(C(F)(F)F)c1` (centres unmarked) [Example 38, 2-(2,6-Dimethoxy-phenyl)-3-(4-fluoro-3-trifluoromethyl-benzyl)-oxazolidin-4-one] gave an IC50 (human orexin-2 receptor) of 730 nM and an IC50 (human orexin-1 receptor) of 1380 nM.
`COc1cccc(OC)c1C1OCC(=O)N1Cc1ccc(Cl)c(F)c1` (centres unmarked) [Example 39, 3-(4-Chloro-3-fluoro-benzyl)-2-(2,6-dimethoxy-phenyl)-oxazolidin-4-one] was tested, and the IC50 (human orexin-2 receptor) was 795 nM and the IC50 (human orexin-1 receptor) was 4100 nM.
With `COc1cccc(OC)c1C1OCC(=O)N1Cc1ccc(OC(F)(F)F)c(Cl)c1` (centres unmarked) [Example 40, 3-(3-Chloro-4-trifluoromethoxy-benzyl)-2-(2,6-dimethoxy-phenyl)-oxazolidin-4-one] the IC50 (human orexin-2 receptor) was 29 nM and the IC50 (human orexin-1 receptor) was 198 nM.
`COc1cccc(OC)c1C1OCC(=O)N1Cc1c(C)cc(C)cc1C` (centres unmarked) [Example 41, 2-(2,6-Dimethoxy-phenyl)-3-(2,4,6-trimethyl-benzyl)-oxazolidin-4-one] showed an IC50 (human orexin-2 receptor) of 681 nM and an IC50 (human orexin-1 receptor) of 542 nM.
`COc1cccc(OC)c1C1OCC(=O)N1Cc1ccc(Cl)cc1Cl` (centres unmarked) [Example 42, 3-(2,4-Dichloro-benzyl)-2-(2,6-dimethoxy-phenyl)-oxazolidin-4-one] gave an IC50 (human orexin-2 receptor) of 376 nM and an IC50 (human orexin-1 receptor) of 1490 nM.
`COc1cccc(OC)c1C1OCC(=O)N1Cc1c(C)cccc1C` (centres unmarked) [Example 44, 2-(2,6-Dimethoxy-phenyl)-3-(2,6-dimethyl-benzyl)-oxazolidin-4-one] was tested, and the IC50 (human orexin-2 receptor) was 467 nM and the IC50 (human orexin-1 receptor) was 1760 nM.
For `CCOc1ccccc1C1OCC(=O)N1Cc1ccccc1Cl` (centres unmarked) [Example 45, 3-(2-Chloro-benzyl)-2-(2-ethoxy-phenyl)-oxazolidin-4-one], the IC50 (human orexin-2 receptor) was 870 nM and the IC50 (human orexin-1 receptor) was 1740 nM.
Work on `CCOc1ccccc1C1OCC(=O)N1Cc1cc(Cl)ccc1Cl` (centres unmarked) [Example 46, 3-(2,5-Dichloro-benzyl)-2-(2-ethoxy-phenyl)-oxazolidin-4-one] yielded an IC50 (human orexin-2 receptor) of 1520 nM and an IC50 (human orexin-1 receptor) of 788 nM.
For `COc1cccc(OC)c1C1OCC(=O)N1Cc1ccc(Oc2ccccc2)cc1` (centres unmarked) [Example 47, 2-(2,6-Dimethoxy-phenyl)-3-(4-phenoxy-benzyl)-oxazolidin-4-one], the IC50 (human orexin-2 receptor) was 68 nM and the IC50 (human orexin-1 receptor) was 1180 nM.
`COc1cccc(OC)c1C1OCC(=O)N1Cc1ccc(OC(F)(F)F)c(F)c1` (centres unmarked) [Example 48, 2-(2,6-Dimethoxy-phenyl)-3-(3-fluoro-4-trifluoromethoxy-benzyl)-oxazolidin-4-one] gave an IC50 (human orexin-2 receptor) of 99 nM and an IC50 (human orexin-1 receptor) of 1350 nM.
Work on `COc1cccc(OC)c1C1OCC(=O)N1Cc1ccc(OC(F)F)cc1` (centres unmarked) [Example 49, 3-(4-Difluoromethoxy-benzyl)-2-(2,6-dimethoxy-phenyl)-oxazolidin-4-one] yielded an IC50 (human orexin-2 receptor) of 113 nM and an IC50 (human orexin-1 receptor) of 2990 nM.
`COc1cccc(OC)c1C1OC(C)(C)C(=O)N1Cc1ccc(Oc2ccccc2)cc1` (centres unmarked) [Example 50, 2-(2,6-Dimethoxy-phenyl)-5,5-dimethyl-3-(4-phenoxy-benzyl)-oxazolidin-4-one] was tested, and the IC50 (human orexin-2 receptor) was 58 nM and the IC50 (human orexin-1 receptor) was 28 nM.
`COc1cccc(OC)c1C1O[C@H](C)C(=O)N1Cc1ccc(Oc2ccccc2)cc1` (stereo partly drawn) [Example 51, 2-(2,6-Dimethoxy-phenyl)-(R)-5-methyl-3-(4-phenoxy-benzyl)-oxazolidin-4-one] gave an IC50 (human orexin-2 receptor) of 25 nM and an IC50 (human orexin-1 receptor) of 220 nM.
In the case of `COc1cccc(OC)c1C1O[C@H](C)C(=O)N1Cc1ccc(OC(F)F)cc1` (stereo partly drawn) [Example 52, 3-(4-Difluoromethoxy-benzyl)-2-(2,6-dimethoxy-phenyl)-(R)-5-methyl-oxazolidin-4-one], the IC50 (human orexin-2 receptor) is reported as 41 nM and the IC50 (human orexin-1 receptor) is reported as 726 nM.
Work on `COc1cccc(OC)c1C1O[C@H](C)C(=O)N1Cc1ccc2ccccc2c1` (stereo partly drawn) [Example 53, 2-(2,6-Dimethoxy-phenyl)-(R)-5-methyl-3-naphthalen-2-ylmethyl-oxazolidin-4-one] yielded an IC50 (human orexin-2 receptor) of 65 nM and an IC50 (human orexin-1 receptor) of 47 nM.
With `CCCOc1ccc(CN2C(=O)COC2c2c(OC)cccc2OC)cc1` (centres unmarked) [Example 54, 2-(2,6-Dimethoxy-phenyl)-3-(4-propoxy-benzyl)-oxazolidin-4-one] the IC50 (human orexin-2 receptor) was 81 nM and the IC50 (human orexin-1 receptor) was 1710 nM.
In the case of `COc1cccc(OC)c1C1O[C@H](C)C(=O)N1Cc1ccc(OC(F)(F)F)c(F)c1` (stereo partly drawn) [Example 55, 2-(2,6-Dimethoxy-phenyl)-3-(3-fluoro-4-trifluoromethoxy-benzyl)-(R)-5-methyl-oxazolidin-4-one], the IC50 (human orexin-2 receptor) is reported as 108 nM and the IC50 (human orexin-1 receptor) is reported as 178 nM.
With `COc1cccc(OC)c1C1O[C@H](C)C(=O)N1Cc1ccc(OC(F)(F)F)c(Cl)c1` (stereo partly drawn) [Example 56, 3-(3-Chloro-4-trifluoromethoxy-benzyl)-2-(2,6-dimethoxy-phenyl)-(R)-5-methyl-oxazolidin-4-one] the IC50 (human orexin-2 receptor) was 111 nM and the IC50 (human orexin-1 receptor) was 164 nM.
For `COc1cccc(OC)c1C1OC(C)(C)C(=O)N1Cc1ccc2ccccc2c1` (centres unmarked) [Example 57, 2-(2,6-Dimethoxy-phenyl)-5,5-dimethyl-3-naphthalen-2-ylmethyl-oxazolidin-4-one], the IC50 (human orexin-2 receptor) was 151 nM and the IC50 (human orexin-1 receptor) was 5 nM.
For `COc1cccc(OC)c1C1OC(C)(C)C(=O)N1Cc1ccc(OC(F)(F)F)c(Cl)c1` (centres unmarked) [Example 58, 3-(3-Chloro-4-trifluoromethoxy-benzyl)-2-(2,6-dimethoxy-phenyl)-5,5-dimethyl-oxazolidin-4-one], the IC50 (human orexin-2 receptor) was 133 nM and the IC50 (human orexin-1 receptor) was 25 nM.
